# How the values were obtained:
# [1] = tested on: LacI lactose operon repressor (SEQ ID NO 11), LacI-T7 system (Phy-spank-T7 RNAP / PT7lac, sfgfp reporter); experiment: IPTG dose response of the LacI-T7 inducible promoter system (steady state transfer function, sfGFP fluorescence by flow cytometry); assay type: cell-based, B. subtilis PY79; conditions: Hill function fit
# Description: (§1) FIG. 1E sfGFP Fluorescence from LacI-T7 and Phy-spank as a function of IPTG concentration.
# Next, we measured the steady state transfer function of both systems by growing the corresponding strains under different concentrations of IPTG. In both cases, sfGFP fluorescence increases as a function of IPTG concentration in a manner well-approximated by a Hill function (FIG. 1E).
# For each experiment, an overnight LB culture was started from the freezer stock of each relevant strain. The next day, saturated cultures (OD600˜3) were diluted 10^5-fold in M9. […]
# (§2) The sfGFP fluorescence distribution of each culture was measured using a BD FACScan flow cytometer with an excitation source of 488 nm and an emission window of 510/21 nm. […] A suspension of calibration beads (Spherotech® RCP-30-5A) in PBS was measured with each experiment. […]
# (§3) Cell populations were gated by forward scatter/side scatter density (not shown) retaining 50% of the total number of events. Next, fluorescence of each gated event in arbitrary units was converted into standardized MEFL values using the calibration bead data. The total cellular fluorescence of each culture sample was then obtained by calculating the median MEFL fluorescence of all gated events in that sample. […] Numerical sfGFP fluorescence values of every sample and replicate can be found in Table 1.
# [2] = tested on: LacI lactose operon repressor (SEQ ID NO 11), Phy-spank system (sfgfp reporter); experiment: IPTG dose response of the Phy-spank inducible promoter system (steady state transfer function, sfGFP fluorescence by flow cytometry); assay type: cell-based, B. subtilis PY79; conditions: Hill function fit
# Description: as §1
# Phy-spank is a variant of the IPTG-inducible promoter Pspac optimized for higher expression and dynamic range, and is perhaps the most widely used B. subtilis inducible promoter system. We constructed a second B. subtilis strain wherein sfgfp* was expressed under the control of Phy-spank, RiboJ, and RBS MF001 to compare its performance to that of LacI-T7.
# Next, we measured the steady state transfer function of both systems by growing the corresponding strains under different concentrations of IPTG. In both cases, sfGFP fluorescence increases as a function of IPTG concentration in a manner well-approximated by a Hill function (FIG. 1E). […]
# as §2
# as §3, with “data.” for “data. The total cellular fluorescence of each culture sample was then obtained by calculating the median MEFL fluorescence of all gated events in that sample.”
# [3] = Bacillus subtilis, IPTG detection threshold, sfGFP fluorescence, read-out: 50% activation concentration
# [4] = sfGFP fluorescence as a function of IPTG concentration
compound,measurement,setting,value
"CC(C)S[C@@H]1O[C@H](CO)[C@H](O)[C@H](O)[C@H]1O [IPTG, Isopropyl β-D-1-thiogalactopyranoside]",EC50,[1]; [3],54.1 ± 1.6 µM
same,Hill coefficient,[1]; [4],3.377±0.051
same,EC50,[2]; [3],50.2 ± 1.5 µM
same,Hill coefficient,[2]; [4],2.120±0.033

# From patent publication US12460215B2, “Bacillus expression system” (WILLIAM MARSH RICE UNIVERSITY, priority 2018, dated 2025)
